Test results published in patent US9937174B2, “Combinations of histone deacetylase inhibitors and bendamustine” (priority 2014, dated 2018).
Where two headings read alike, the source gives them in different places.

Legend:
Hut-78 = experiment: cells; format: cell-based; conditions: Homo sapiens
Method: (§1) Ricolinostat was administered to each cell line at various concentrations (0.01, 0.1, 1, 5, and 10 μM), and cell viability was measured at 24, 48, and 72 hours.
(§2) Bendamustine was administered to each cell line at various concentrations (25, 50, 100, 200, and 300 μM), and cell viability was measured at 24 and 48 hours.
(§3) The effect of the drugs on each cell line was determined, and the combination index (CI) was measured. A CI<1 means synergy; a CI=1 means an additive effect; and a CI>1 means antagonism.

Jeko-1 = experiment: cells; format: cell-based; conditions: Homo sapiens
Method: as §1, §2, §3

WSU-NHL = experiment: cells; format: cell-based; conditions: Homo sapiens
Method: as §1, §2, §3

RL = experiment: MTT cell viability in RL cells; format: cell-based; conditions: Homo sapiens, 48 h
Method: (§4) HDAC6 protein is expressed in all cell lines examined (FIG. 1A). Ricolinostat was administered to each cell line at various concentrations (0.01, 0.1, 1, 5, and 10 μM), and cell viability was measured at 24, 48, and 72 hours.

Granta-519 = experiment: cells; format: cell-based; conditions: Homo sapiens, MTT
Method: as §1

Karpas-299 = experiment: MTT cell viability in Karpas-299 cells; format: cell-based; conditions: Homo sapiens, Karpas-299, 48 h
Method: as §4

lymphoma cell lines = experiment: cells; format: cell-based
[1] = system: lymphoma cell lines (WSU-NHL, Hut-78, Jeko-1); format: cell-based; conditions: flow cytometry, 24-48 h
Method: In FIG. 5A WSU-NHL cells were treated with either ricolinostat, bendamustine, or ricolinostat and bendamustine at the indicated concentrations. After 24 hours, the cells were fixed and stained with propidium iodide, and were analyzed by flow cytometry. […] This effect was enhanced by the combination with bendamustine (FIGS. 5C and 5D).

[2] = system: WSU-NHL, Hut-78 and Jeko-1 cells; experiment: Methylcellulose clonogenic assay; format: cell-based; conditions: 24 h liquid culture, colonies counted after 10 days
Method: FIG. 2D and FIG. 2E show effects of ricolinostat alone and in combination with bendamustine on clonogenic survival. WSU-NHL, Hut-78 and Jeko-1 cells were first incubated with ricolinostat alone (1, 5, 10 μM) (C) and subsequently in combination with bendamustine (D) in liquid culture for 24 h. Treated cells were incubated in methylcellulose and colonies consisting of more 50 cell were counted after 10 days. The relative percentage with respect to control cells are shown and represent the mean±SD of three separate experiments.

HDAC6 = target: T1, HDAC6 (Homo sapiens, UniProt Q9UBN7); experiment: Western blot of HDAC6 and acetylated α-tubulin; format: cell-based; conditions: 24 h
T1 construct: endogenous in cells; host or cells: WSU-NHL, Hut-78, Jeko-1 lymphoma cell lines
T1 sequence (Q9UBN7 1-1215): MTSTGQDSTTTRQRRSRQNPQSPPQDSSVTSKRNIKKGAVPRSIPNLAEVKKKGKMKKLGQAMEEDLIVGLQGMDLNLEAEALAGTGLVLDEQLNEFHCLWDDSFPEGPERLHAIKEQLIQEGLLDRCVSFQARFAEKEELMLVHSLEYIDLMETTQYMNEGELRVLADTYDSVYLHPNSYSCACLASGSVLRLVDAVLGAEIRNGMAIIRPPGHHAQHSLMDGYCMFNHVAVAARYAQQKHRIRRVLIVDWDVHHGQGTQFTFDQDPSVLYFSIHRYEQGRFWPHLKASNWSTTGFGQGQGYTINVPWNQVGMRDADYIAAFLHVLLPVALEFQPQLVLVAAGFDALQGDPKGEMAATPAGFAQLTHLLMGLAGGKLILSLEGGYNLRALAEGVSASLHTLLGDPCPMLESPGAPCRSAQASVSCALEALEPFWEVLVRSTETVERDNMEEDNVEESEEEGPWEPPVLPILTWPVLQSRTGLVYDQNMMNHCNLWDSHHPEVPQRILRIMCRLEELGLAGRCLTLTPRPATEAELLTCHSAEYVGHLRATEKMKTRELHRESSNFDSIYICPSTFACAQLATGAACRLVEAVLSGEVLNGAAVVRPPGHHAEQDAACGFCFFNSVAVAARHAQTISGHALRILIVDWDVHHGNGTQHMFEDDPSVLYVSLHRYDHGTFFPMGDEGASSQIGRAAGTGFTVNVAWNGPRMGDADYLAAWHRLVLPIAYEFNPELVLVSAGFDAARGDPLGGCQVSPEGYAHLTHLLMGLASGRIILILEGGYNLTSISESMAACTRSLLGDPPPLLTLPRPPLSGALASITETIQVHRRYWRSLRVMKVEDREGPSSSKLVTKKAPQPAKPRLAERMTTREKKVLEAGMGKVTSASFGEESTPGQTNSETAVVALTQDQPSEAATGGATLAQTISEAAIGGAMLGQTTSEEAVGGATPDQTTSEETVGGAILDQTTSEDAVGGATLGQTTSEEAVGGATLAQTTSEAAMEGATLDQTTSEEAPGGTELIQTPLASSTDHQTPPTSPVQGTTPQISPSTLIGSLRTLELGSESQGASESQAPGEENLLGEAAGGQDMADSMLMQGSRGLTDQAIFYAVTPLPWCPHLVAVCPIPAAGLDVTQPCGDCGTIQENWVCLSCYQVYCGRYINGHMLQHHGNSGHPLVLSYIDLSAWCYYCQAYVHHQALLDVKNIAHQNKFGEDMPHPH
Description: Tubulin was used to normalize protein loading.

IL-10 = IL-10 secretion by ELISA
Method: IL-10 secretion was analyzed by ELISA. All data are means (±SD) of at least three separate experiments each performed in duplicate.

[3] = system: lymphoma cell lines (WSU-NHL, Hut-78, Jeko-1); experiment: Cell cycle analysis by flow cytometry; conditions: 24 h
Method: The bars of M1, M2, M3 and M4 indicate the sub-G0/G1, G0/G1, S and G2/M phases, respectively.
All values represent the mean±SD of three independent experiments.
(§5) Apoptosis, reactive oxygen species (ROS), cell cycle analysis, and Bcl-2 protein expression were measured by flow cytometry.

[4] = system: reactive oxygen species (ROS); experiment: ROS generation by flow cytometry and Trx1 western blot; conditions: 24 h and 48 h
Method: All data are expressed as the mean±SD of triplicate culture.
H2O2 was used as a positive control.
as §5

tubulin polymerization = experiment: Tubulin polymerization by α-tubulin staining and flow cytometry; conditions: 24 hours, intensity of fluorescence
Method: Data are expressed as mean±SD and were obtained from three independent experiments performed in triplicate.
Lymphoma cells were treated for 24 hours with ricolinostat alone and in combination with bendamustine along with the microtubule destabilizer nocodazole (1 μM) and the microtubule stabilizer paclitaxel (100 nM). This was followed by whole cell-based quantitative measurement of tubulin polymerization using alpha-tubulin staining.

For O=C(CCCCCCNC(=O)c1cnc(N(c2ccccc2)c2ccccc2)nc1)NO [ricolinostat, 2-(diphenylamino)-N-(7-(hydroxyamino)-7-oxoheptyl)pyrimidine-5-carboxamide], the IC50 (Hut-78; HuT78, 48 h, Hut-78, 48 h, MTT, read-out: IC50) was 1.51 µM, the IC50 (Hut-78; HuT78, 48 h, Hut-78, 48 hours, MTT, read-out: IC50) was 1.5 µM and the IC50 (Jeko-1; Jeko-1, 48 h, MTT, read-out: IC50) was 3.42 µM. It also gave an IC50 (WSU-NHL; 24 h, MTT, read-out: IC50) of 8.65 µM, an IC50 (WSU-NHL; 48 h, MTT, read-out: IC50) of 1.97 µM and an IC50 (RL) of 3.37 µM. The IC50 (Granta-519; Granta-519, 24 h) was 64 µM, the IC50 (Granta-519; Granta-519, 48 h) was 20 µM and the IC50 (Karpas-299) was 4.82 µM. For the same compound, the IC50 (lymphoma cell lines; lymphoma cell lines, exposure 24-72 hours, read-out: IC50 values ranging) was 0.17 to 8.65 µM, the IC50 (lymphoma cell lines; panel of six lymphoma cell lines, 24 and 48 h, read-out: IC50 values ranging) was 1.51 to 64 µM and the induction of apoptosis [1] was “induced apoptosis in all cell lines examined in time- and dose dependent manner”. The “clonogenic survival / colony formation” value [2] was “reduced clonogenic survival in a dose dependent manner”, the “HDAC6 expression and acetylation level of α-tubulin” value (HDAC6) was “reduced HDAC6 expression and induced the acetylation level of α-tubulin” and the IL-10 secretion (IL-10) was “down-regulation of IL-10”. The cell cycle distribution [3] was “increase in the percentage of cells in the G0/G1 phase and a decrease in the G2/M phase”, the ROS generation [4] was “induced an increase of ROS production at 24 h, which further increased after 48 h” and the tubulin polymerization (tubulin polymerization) was “induced tubulin polymerization”.
With Cn1c(CCCC(=O)O)nc2cc(N(CCCl)CCCl)ccc21 [bendamustine, 4-[5-[Bis(2-chloroethyl)amino]-1-methylbenzimidazol-2-yl]butanoic acid] the IC50 (Hut-78; HuT78, 24 h, read-out: IC50 at 24 hours) was 144 µM, the IC50 (Jeko-1; JeKo-1, 24 h, read-out: IC50 at 24 hours) was 127 µM and the IC50 (WSU-NHL; 24 h, read-out: IC50 at 24 hours) was 168 µM. It also gave an IC50 (lymphoma cell lines; 24 h, read-out: range of IC50) of 127 to 168 µM.
